Experimental data taken from patent EP0582261A1, “Cephalosporin compounds and processes for the preparation thereof” (LUCKY LTD., priority 1992, dated 1994).
≈ marks a conversion by molar mass, not a printed value.

Assays:
Assay in all cases: MIC, two-fold dilution method on Müller-Hinton agar
Assay type in all cases: cell-based
Details in all cases: incubated at 37°C for 20 hours
[1] = system: Acinetobacter calcoaceticus ATCC 15473
Description: (§1) The same procedures as described in Example 163 were repeated using 7-amino-1,8-dimethyl[1,3]imidazo[1,2-c] pyrimidine-5-thione prepared in Preparation Example 36 in place of 7-amino-1-methyl[1,3]imidazo[1,2-c]pyrimidine-5-thione to yield 190mg and 180mg of the title compound(a) and (b), respectively, as white solids.
(§2) These MIC values were taken by employing a two-fold dilution method: that is, two-fold serial dilutions of each of the test compounds were made and dispersed in a Müller-Hinton agar medium; 2µl of the standard test strain which had the 10⁷ CFU(Colony Forming Unit) per ml was inoculated on the medium; and these were incubated at 37°C for 20 hours.

[2] = system: Bacillus cereus ATCC 11778
Description: as §1, §2

[3] = system: Bacillus megaterium ATCC 9885
Description: as §1, §2

[4] = system: Citrobacter freundii ATCC 8090
Description: as §1, §2

[5] = system: Enterobacter aerogenes ATCC 29751
Description: as §1, §2

[6] = system: Enterobacter cloacae ATCC 27508
Description: as §1, §2

[7] = system: Escherichia coli ATCC 10536
Description: as §1, §2

[8] = system: Escherichia coli ATCC 25922
Description: as §1, §2

[9] = system: Klebsiella pneumoniae ATCC 10031
Description: as §1, §2

[10] = system: Micrococcus luteus ATCC 9341
Description: as §1, §2

[11] = system: Morganella morganii ATCC 8076h
Description: as §1, §2

[12] = system: Proteus mirabilis ATCC 25933
Description: as §1, §2

[13] = system: Proteus vulgaris ATCC 6059
Description: as §1, §2

[14] = system: Providencia rettgeri ATCC 9250
Description: as §1, §2

[15] = system: Pseudomonas aeruginosa ATCC 10145
Description: as §1, §2

[16] = system: Pseudomonas aeruginosa ATCC 25619
Description: as §1, §2

[17] = system: Pseudomonas aeruginosa ATCC 27853
Description: as §1, §2

[18] = system: Salmonella typhimurium ATCC 14028
Description: as §1, §2

[19] = system: Serratia marcescens ATCC 27117
Description: as §1, §2

[20] = system: Shigella flexneri ATCC 11836
Description: as §1, §2

[21] = system: Shigella sonnei ATCC 11060
Description: as §1, §2

[22] = system: Staphylococcus aureus ATCC 10537
Description: as §1, §2

[23] = system: Staphylococcus aureus ATCC 6538p
Description: as §1, §2

[24] = system: Staphylococcus epidermidis ATCC 12228
Description: as §1, §2

[25] = system: Streptococcus faecalis ATCC 29212
Description: as §1, §2

CCC(C)(O/N=C(\C(=O)NC1C(=O)N2C(C(=O)[O-])=C(CSc3nc(N)cc4n3nc(N)[n+]4C)CS[C@H]12)c1csc(N)n1)C(=O)O (stereo partly shown) [Exp. 96(b), 7-[(Z)-2-(2-aminothiazol-4-yl)-2-(2-carboxybut-2-oxyimino)acetamido]-3-(2,7-diamino-1-methyl[1,2,4]triazolo[1,5-c]pyrimidinium-5-yl)thiomethyl-3-cephem-4-carboxylate]
MIC values against the standard strains [1]: 4 µg/mL (≈ 5.9 µM)
MIC values against the standard strains [2]: 16 µg/mL (≈ 23.6 µM)
MIC values against the standard strains [3]: 0.25 µg/mL (≈ 0.369 µM)
MIC values against the standard strains [4]: 0.13 µg/mL (≈ 0.192 µM)
MIC values against the standard strains [5]: 0.5 µg/mL (≈ 0.738 µM)
MIC values against the standard strains [6]: 0.063 µg/mL (≈ 0.093 µM)
MIC values against the standard strains [7]: 0.13 µg/mL (≈ 0.192 µM)
MIC values against the standard strains [8]: 0.13 µg/mL (≈ 0.192 µM)
MIC values against the standard strains [9]: ≤0.008 µg/mL
MIC values against the standard strains [10]: 0.016 µg/mL (≈ 0.0236 µM)
MIC values against the standard strains [11]: ≤0.008 µg/mL
MIC values against the standard strains [12]: 0.13 µg/mL (≈ 0.192 µM)
MIC values against the standard strains [13]: 0.063 µg/mL (≈ 0.093 µM)
MIC values against the standard strains [14]: ≤0.008 µg/mL
MIC values against the standard strains [15]: 2 µg/mL (≈ 2.95 µM)
MIC values against the standard strains [16]: 0.5 µg/mL (≈ 0.738 µM)
MIC values against the standard strains [17]: 1 µg/mL (≈ 1.48 µM)
MIC values against the standard strains [18]: 0.25 µg/mL (≈ 0.369 µM)
MIC values against the standard strains [19]: 0.13 µg/mL (≈ 0.192 µM)
MIC values against the standard strains [20]: 0.031 µg/mL (≈ 0.0457 µM)
MIC values against the standard strains [21]: 0.13 µg/mL (≈ 0.192 µM)
MIC values against the standard strains [22]: 1 µg/mL (≈ 1.48 µM)
MIC values against the standard strains [23]: 1 µg/mL (≈ 1.48 µM)
MIC values against the standard strains [24]: 0.5 µg/mL (≈ 0.738 µM)
MIC values against the standard strains [25]: 16 µg/mL (≈ 23.6 µM)
